Experiments:
uterine peroxidase = test: Uterine peroxidase activity (gene product of uterine) in cycloheximide-injured rats; assay type: in vivo, Sprague-Dawley rats; conditions: treatment group: cycloheximide + LIG, intraperitoneal injection, female rats; P < 0.001 vs control
Experimental: It is known that peroxidase induction is a useful market for estrogen-effected growth responses in uterine. The uterine peroxidase is a useful gene product for assessing effect of hormones on uterine. […] Female Sprague-Dawley rats at 20 days of age, allowed free access to food and water. Castrate rats were the same strain. Rats of normal group were administered in saline solution by intraperitoneal injection. Rats of control group were injected cycloheximide. Rats of treatment group injected cycloherimide+LIG. At the indicated times the rats were sacrificed by decapitation. The entire uterus from oviduct to cervix was removed, quickly dissected free of fat and connective tissue, blotted on hard filter paper, and weighed. Each uterus was minced with a scissors into a 12-ml polycarbonate tube and homogenized, 10 sec with ice cooling in 10 mM Tris.HCl, pH 7.2, buffer (25 mg of tissue per ml unless otherwise stated), with homogenizer. The homogenates were centrifuged for 45 min at 39,000×g at 2°. The hypotonic supernatant fraction contains no peroxidase activity. […] The reaction was started by the addition of enzyme (extract), and initial rates of guaiacol oxidation were determined from the increase in absorbance at 470 nm for the first minutes.

uterine tissues = test: DNA synthesis of uterine (3H-TdR) in cycloheximide-injured rats; assay type: in vivo, Sprague-Dawley rats; conditions: treatment group: cycloheximide + LIG, female rats
Experimental: Female Sprague-Dawley rats at 20 days of age, allowed free access to food and water and, as immature rats, used by age 23 days. Castrate rats were the same strain. Rats of normal group were administered in saline solution by intraperitoneal injection. Rats of control group were injected cycloheximide. Rats of treatment group injected cycloherimide+LIG. At the indicated times the rats were sacrificed by decapitation. The entire uterus from oviduct to cervix was removed, quickly dissected free of fat and connective tissue, blotted on hard filter paper, and weighed. Each uterus was minced with a scissors into a 12-ml polycarbonate tube and homogenized, 10 sec with ice cooling in 10 mM Tris.HCl, pH 7.2, buffer (10 mg of tissue per ml unless otherwise stated), with homogenizer. Aliquets used for DNA analysis. Determination of DNA is used methods of ^3H-TdR.

uterine RNA = test: Uterine RNA concentration; assay type: in vivo; conditions: treatment group; absorbance at 260 nm; P < 0.01 vs control
Experimental: Uterine samples (100 mg) were digested in a 4 M guanidium thiocyanate solution, to which was added 50 μl of 2 M sodium acetate (pH 4.0), 500 μl phenol, and finally 200 μl chloroform/isoamyl alcohol (24:1, v/v) sequentially, with mixing after each addition. The RNA from the resultant solution was pelleted by mixing with 1 vol. isopropanol and incubating at −20° C. for 2 h and spun at 12000×g for 12 min, then resuspended in 0.5% sodium dodecyl sulfate (SDS). The RNA suspension was incubated for 10 min at 65° C. and stored at −20° C. until use. RNA concentration was determined by absorbance intensity at 260 nm.

[1] = test system: bone marrow stem cells (CFU-S); test: Spleen colony assay, bone marrow stem cells (CFU-S); assay type: in vivo; conditions: treatment group, mice treated by cyclophosphamide; P < 0.01 vs control
Text: Effects of LIG on hemopoietic system were investigated. […] With increased cells in bone-marrow (BMC), endogenous colonies in spleen and higher ^3H-TdR uptake in marrow and spleen. The level of serum colony stimulating factor (CSF) increased after injection. […] Pharmacological effects as illustrated by the following table: by means of the spleen colony assay technique the action of LIG on bone marrow stem cells (CFU-S)

peritoneal macrophages = test: Phagocytosis of peritoneal macrophage of mice; assay type: in vivo; conditions: LIG 5.5 mg/kg intraperitoneally daily for 5 days, cyclophosphamide 4.5 mg/kg; macrophages with phagocytized chick red blood cells per 100 macrophages; P < 0.01 vs control
Experimental: Male mice weight 18-20 g were used in the experiments and were divided into treated (LIG) and control groups. The dosage of LIG was 5.5 mg/kg injected intraperitoneally. The control mice were injected with same volume of normal saline. These injections were repeated daily for 5 days, both treated and control group were injected intraperitoneally with cyclosphosphamide. The dosage of cyclophosphamide is 4.5 mg/kg. The same experimental procedure for example 3, 4 and 5 in testing mice were used. Added 0.02 ml of 5% washed chick red blood cell suspension to 0.5 ml of the peritoneal exudates. Shook gently to mix and incubate at 37° C. for 5 minutes. Dipped two cover slips, closed to each other, in the above mixture and incubated for 30 minutes for the migration of the macrophages along the cover slips, fixed and stained with Sharma stain. Examined microscopically for: Phagocytic rate—number of macrophages with phagocytized chick red blood cells per 100 macrophages counted. Method of animal model is regular.

white blood cells = test: White blood cells in rats treated by cyclophosphamide; assay type: in vivo; conditions: LIG + cyclophosphamide, 10 days treatment, P < 0.01 vs control
Text: Action of LIG and cyclophosphamide on white blood cells was investigated by means of white blood cells assay. […] Method of testing in animal is standard. The dosage of LIG and cyclophosphamide is the same as in above examples. Time of treatment is 10 days.

lymphocytes = test: Lymphoblastoid transformation test (3H-TdR liquid scintillation); assay type: in vivo, mice; conditions: treatment group, P < 0.01 vs control
Experimental: By means of ^3H-TdR liquid scintillation assay technique, the action of LIG on lymphoblastoid transformation was investigated method:
(1) Experimental procedure of animal is the same as in Example 2.
(2) Lemphoblastoid transformation test:
a. Culture media—RPMI 1640, medium 199 minimal essential medium (Eagle).
b. Buffer—Hepes buffer, the final concentration at 37° C. was 25 mM, to maintain the pH of the medium at 7.31.
c. Serum—generally 15-205 fetal bovine serum was incorporated, for lymphocytes from mice, 5% was used.
d. Gaseous phase—5% CO2 in air.
e. Cell concentration—generally 1-2×10^6/ml.
f. Stimulants—20 μl/ml for phytohemagglutinin containing polysaccharide (PHA-M) or 10 μl/ml for polysaccharide-free purified phytohemagglutinin (PHA-P).
a. The conditions of cell culture are same as above. ^3H-TdR was added after 48 hours of incubation at a final concentration of 1 μCi/ml and continued the incubation for 24 hours.
b. Washed the cells twice with cold normal saline and the erythrocytes were lysed. The intact lymphocytes were again washed once with cold saline. Spun down the lymphocytes and added 2 ml of 10% trichloroacetic acid to precipitate the protein. Washed twice with normal saline. Added 2 ml of ethanol:ether (1:1) to wash once. […]
c. Added 4 ml of scintillation fluid to 0.1 ml of the final sample and counted in a liquid scintillation counter.

interleukin-2 (rIL-2) = test: Interleukin-2 (rIL-2) determination; conditions: treatment group
Text: The methods of determination rIL-2 were regular.

human blood lymphocytes = test: Immune function of human blood lymphocytes (3H-TdR incorporation); assay type: cell-based; conditions: LIG added to culture medium of lymphocytes from old volunteers (60-70 years)
Experimental: Twenty (20) old volunteers (60-70 years of age) and 10 healthy young persons participated in the experiment. 2 ml of venous blood, heparinized was obtained from each of the participants. The Study of the effects of LIG was carried out by using Eagle's Minimal Essential Medium MEM). MEM was supplemented with 0.125 ml of heat-inactivated fetal calf serum, 100 units of Penicillin and 0.1 mg of streptomycin per ml of medium. Culture medium was divided into treated (LIG) and control group. LIG was added to the culture medium of treatment group. The culture medium of control group was mixed with same volume as that of LIG of normal saline on the 72 hours of culture. The ^3H-thymidine (^3H-TdR) was added into all the cultures (2 μci/ml) for last 12 hours of culture. The cells were harvested on 0.45 μm filters, washed with phosphate buffer (ph 7.4) and bleached with H2O2. The filters were then dried and the incorporation of ^3H-TdR into lymphocytes cell was measured by scintillation counter.

hemopoietic system = test: Recovery of hemopoiesis in mice treated by cyclophosphamide; assay type: in vivo
Text: Effects of LIG on hemopoietic system were investigated. […] With increased cells in bone-marrow (BMC), endogenous colonies in spleen and higher ^3H-TdR uptake in marrow and spleen. The level of serum colony stimulating factor (CSF) increased after injection.

[2] = mice treated by cyclophosphamide

For CCC/C=C1\OC(=O)C2=C1CCC=C2 [LIG, ligustilide], the Peroxidase activity (uterine peroxidase) was 7.6 ± 0.8 Enzyme units/10 mg uterus, the DNA synthesis (uterine tissues) was 1052 ± 110 CPM/10 g uterine tissues and the RNA units (uterine RNA) was 0.92 ± 0.12. For the same compound, the “Mean (CFU-S ± SD)” value [1] was 28.5 ± 3.5, the “Phagocytic (rate ± SD)” value (peritoneal macrophages) was 26.8 ± 3.1 and the White blood cells (white blood cells) was 13.8 ± 2.0 × 10^3/cm^3. The “Lymphoblastoid transformation CPM ± SD” value (lymphocytes) was 1650 ± 270 CPM, the IL-2 (interleukin-2 (rIL-2)) was 75.6 ± 8.9 U/ml and the “3H-TdR incorporation into lymphocytes, CPM” value (human blood lymphocytes) was 2180 ± 360 CPM. For the same compound, the “Level of serum colony stimulating factor (CSF)” value (hemopoietic system; after injection) was “increased”, the “3H-TdR uptake in marrow and spleen” value (hemopoietic system; [2]) was “higher” and the “Cells in bone-marrow (BMC)” value (hemopoietic system; [2]) was “increased”. The “Recovery rate of hemopoieses” value (hemopoietic system; [2]) was “markedly improve”.

Reference: US20030165580A1, “Safe pharmaceutical composition for treatment and prevention of gynecological disease” (priority 2002, published 2003)
